In patent US5373014A, “Rapamycin oximes” (American Home Products Corporation, priority 1993, dated 1994):
“And” between values parts separate entries of the source, which are not always exact repeats. Equal values may be shown once. Read-outs that look alike come from different tables or passages of the source.

Tests used:
[1] = stability under physiological conditions (degradative hydrolysis in phosphate buffer); assay type: physicochemical
Protocol: The table below provides the […] in 0.1M phosphate buffer (pH 7.4) at 37° C.

[2] = test system: pinch skin graft from male BALB/c donors transplanted to male C3 H(H-2K) recipients; assay: survival time of pinch skin graft (allograft); assay type: in vivo, male C3 H(H-2K) recipients (mice); conditions: 4 mg/kg, intraperitoneally or orally; untreated controls rejected within 6-7 days
Protocol: (§1) Immunosuppressive activity for representative compounds of this invention was evaluated in an in vitro standard pharmacological test procedure to measure lymphocyte proliferation (LAF) and in an in vivo standard pharmacological test procedure which evaluated the survival time of a pinch skin graft.
Representative compounds of this invention were also evaluated in an in vivo test procedure designed to determine the survival time of pinch skin graft from male BALB/c donors transplanted to male C3 H(H-2K) recipients. The method is adapted from Billingham R. E. and Medawar P. B., J. Exp. Biol. 28:385-402, (1951 ). Briefly, a pinch skin graft from the donor was grafted on the dorsum of the recipient as a allograft, and an isograft was used as control in the same region. The recipients were treated with either varying concentrations of test compounds intraperitoneally or orally. Rapamycin was used as a test control. Untreated recipients serve as rejection control. The graft was monitored daily and observations were recorded until the graft became dry and formed a blackened scab. This was considered as the rejection day. The mean graft survival time (number of days±S.D.) of the drug treatment group was compared with the control group. […] Results are expressed as the mean survival time in days. Untreated (control) pinch skin grafts are usually rejected within 6-7 days. […]

[3] = test system: cells from the thymus of normal BALB/c mice (lymphocyte proliferation); assay: comitogen-induced thymocyte proliferation procedure (LAF); assay type: cell-based; conditions: read-out: LAF IC50
Protocol: as §1
Briefly, cells from the thymus of normal BALB/c mice are cultured for 72 hours with PHA and IL-1 and pulsed with tritiated thymidine during the last six hours. […] Cells are harvested and incorporated radioactivity is determined. Inhibition of lymphoproliferation is assessed as percent change in counts per minute from nondrug treated controls. For each compound evaluated, rapamycin was also evaluated for the purpose of comparison. An IC50 was obtained for each test compound as well as for rapamycin. […] The results obtained are provided as an IC50.

[4] = Mus musculus, Lymphocyte, 72 h culture with PHA and IL-1, tritiated thymidine during last six hours
[5] = 72 h culture with PHA and IL-1, tritiated thymidine during last six hours

SMILES	IC50 [3, 4] [nM]	half-life ([1]; 0.1m phosphate buffer, pH 7.4) [h]	also measured
CO[C@H]1C[C@@H]2CC[C@@H](C)[C@@](O)(O2)C(=O)C(=O)N2CCCC[C@H]2C(=O)O[C@H]([C@H](C)C[C@@H]2CC[C@@H](O)[C@H](OC)C2)CC(=O)[C@H](C)/C=C(\C)[C@@H](O)[C@@H](OC)C(=O)[C@H](C)C[C@H](C)/C=C/C=C/C=C/1C [Rapamycin]			half-life ([1]; 0.1M phosphate buffer (pH 7.4) at 37° C., read-out: Half Life (converted)): 13 h; Skin Graft mean survival time (days ± SD) [2]: 12.0 ± 1.7 days; IC50 ([3]; Mus musculus, Lymphocyte): 0.4 to 5.1 nM
CO/N=C1/C[C@@H]([C@H](C)C[C@@H]2CC[C@@H](OC(=O)CN(C)C)[C@H](OC)C2)OC(=O)[C@@H]2CCCCN2C(=O)C(=O)[C@]2(O)O[C@@H](CC[C@H]2C)C[C@H](OC)/C(C)=C/C=C/C=C/[C@@H](C)C[C@@H](C)C(=O)[C@H](OC)[C@H](O)/C(C)=C/[C@H]1C [Example 7, Rapamycin (Z)-27-(O-methoxime), 42-ester with 2-N,N-dimethylglycine]	291		
CO/N=C1/C[C@@H]([C@H](C)C[C@@H]2CC[C@@H](O)[C@H](OC)C2)OC(=O)[C@@H]2CCCCN2C(=O)C(=O)[C@]2(O)O[C@@H](CC[C@H]2C)C[C@H](OC)/C(C)=C/C=C/C=C/[C@@H](C)C[C@@H](C)C(=O)[C@H](OC)[C@H](O)/C(C)=C/[C@H]1C [Rapamycin (Z)-27-(O-methoxime), rapamycin (Z)-27-(O-methoxime)]		156	
CO/N=C1\C[C@@H]([C@H](C)C[C@@H]2CC[C@@H](O)[C@H](OC)C2)OC(=O)[C@@H]2CCCCN2C(=O)C(=O)[C@]2(O)O[C@@H](CC[C@H]2C)C[C@H](OC)/C(C)=C/C=C/C=C/[C@@H](C)C[C@@H](C)C(=O)[C@H](OC)[C@H](O)/C(C)=C/[C@H]1C [Rapamycin (E)-27-(O-methoxime), rapamycin (E)-27-(O-methoxime)]		59	
CO[C@H]1C[C@@H]2CC[C@@H](C)[C@@](O)(O2)C(=O)C(=O)N2CCCC[C@H]2C(=O)O[C@H]([C@H](C)C[C@@H]2CC[C@@H](OC(=O)CC[C@H](NC(=O)OC(C)(C)C)C(=O)OC(C)(C)C)[C@H](OC)C2)C/C(=N/OCC#N)[C@H](C)/C=C(\C)[C@@H](O)[C@@H](OC)C(=O)[C@H](C)C[C@H](C)/C=C/C=C/C=C/1C [Example 3, Rapamycin (Z)-27-O-(cyanomethyl)-oxime, 42-ester with N-(tert-butoxycarbonyl)-α-O-(tert-butyl)-L-glutamic Acid]	432		
CO[C@H]1C[C@@H]2CC[C@@H](C)[C@@](O)(O2)C(=O)C(=O)N2CCCC[C@H]2C(=O)O[C@H]([C@H](C)C[C@@H]2CC[C@@H](OC(=O)CC[C@H](NC(=O)OC(C)(C)C)C(=O)OC(C)(C)C)[C@H](OC)C2)CC(=O)[C@H](C)/C=C(\C)[C@@H](O)[C@@H](OC)C(=O)[C@H](C)C[C@H](C)/C=C/C=C/C=C/1C [rapamycin 42-ester with (S)-5-tertbutoxy-4-tertbutoxycarbonylamino-5-oxo-pentanoic acid, reference compound]		24	
CO/N=C1\C[C@@H]([C@H](C)C[C@@H]2CC[C@@H](OC(=O)Oc3ccc([N+](=O)[O-])cc3)[C@H](OC)C2)OC(=O)[C@@H]2CCCCN2C(=O)C(=O)[C@]2(O)O[C@@H](CC[C@H]2C)C[C@H](OC)/C(C)=C/C=C/C=C/[C@@H](C)C[C@@H](C)C(=O)[C@H](OC)[C@H](O)/C(C)=C/[C@H]1C [Example 9, Rapamycin (E)-27-(O-methoxime), 42-ester with (4-nitrophenoxy)carbonic acid]	77		IC50 [3, 5]: 47 nM
CO/N=C1\C[C@@H]([C@H](C)C[C@@H]2CC[C@@H](OC(=O)CC[C@H](NC(=O)OC(C)(C)C)C(=O)OC(C)(C)C)[C@H](OC)C2)OC(=O)[C@@H]2CCCCN2C(=O)C(=O)[C@]2(O)O[C@@H](CC[C@H]2C)C[C@H](OC)/C(C)=C/C=C/C=C/[C@@H](C)C[C@@H](C)C(=O)[C@H](OC)[C@H](O)/C(C)=C/[C@H]1C [Example 11, Rapamycin (E)-27-(O-methoxime), 42-ester with (S)-5-tertbutoxy-4-tertbutoxycarbonylamino-5-oxo-pentanoic acid]	372		IC50 [3, 5]: 321 nM
CO/N=C1/C[C@@H]([C@H](C)C[C@@H]2CC[C@@H](OC(=O)CC[C@H](NC(=O)OC(C)(C)C)C(=O)OC(C)(C)C)[C@H](OC)C2)OC(=O)[C@@H]2CCCCN2C(=O)C(=O)[C@]2(O)O[C@@H](CC[C@H]2C)C[C@H](OC)/C(C)=C/C=C/C=C/[C@@H](C)C[C@@H](C)C(=O)[C@H](OC)[C@H](O)/C(C)=C/[C@H]1C [Example 10, Rapamycin (Z)-27-(O-methoxime), 42-ester with (S)-5-tertbutoxy-4-tertbutoxycarbonylamino-5-oxo-pentanoic acid]	4.1	264	stability toward degradation compared with rapamycin or the corresponding oxime or ester alone ([1]; pH 7.4): significantly more stable toward degradation than rapamycin, or the corresponding oxime or ester alone; Skin Graft mean survival time (days ± SD) [2]: 10.0 ± 0.2 days and 11.2 ± 0.8 days
CO/N=C1/C[C@@H]([C@H](C)C[C@@H]2CC[C@@H](OC(=O)COCC(=O)OCc3ccccc3)[C@H](OC)C2)OC(=O)[C@@H]2CCCCN2C(=O)C(=O)[C@]2(O)O[C@@H](CC[C@H]2C)C[C@H](OC)/C(C)=C/C=C/C=C/[C@@H](C)C[C@@H](C)C(=O)[C@H](OC)[C@H](O)/C(C)=C/[C@H]1C [Example 8, Rapamycin (Z)-27-(O-methoxime), 42-ester with (5-benzyloxycarbonylmethoxy) acetic acid]	421		
